This note sets out measurements from US20230102192A1, “THERAPIES FOR THE TREATMENT OF DISEASES AND DISORDERS ASSOCIATED WITH ABNORMAL EXPRESSION OF A NEURAL-ASSOCIATED GENE” (The Regents of the University of California, priority 2020, published 2023).

Entries after “also recorded” stand apart in the source; their conditions may differ.

Holding throughout (assay type): cell-based, human
The subject of experiment [1] is MECP2-mosaic (CTR/KO) neurospheres. The experiment is described as follows: Calcium imaging of neurospheres. As to conditions: for calcium transient amplitude: P=0.255. Here is the method: Calcium imaging. Calcium imaging was performed as described in Chailangkarn et al. Briefly, PSC-derived neuronal networks were lentivirally transduced with a Syn::RFP reporter construct. Cultures were washed with Krebs HEPES buffer and incubated with Fluo-4AM (Molecular Probes/Invitrogen, Carlsbad, Calif., USA). A Hamamatsu ORCA-ER digital camera (Hamamatsu Photonics, Japan) with 488 nm filter on an Olympus IX81 inverted fluorescence confocal microscope (Olympus Optical, Tokyo, Japan) acquired 5000 frames at 28 Hz in a 256×256 pixel region (100× magnification). Images were acquired with MetaMorph7.7 (MDS Analytical Technologies, Sunnyvale, Calif., USA) and analyzed with ImageJ and Matlab7.2 (Mathworks, Natick, Mass., USA). Syn::RFP+ neurons were selected following tetrodotoxin blockade of calcium transients. A 95th-percentile threshold of amplitude for calcium spikes was set for event detection; signal amplitude is presented as fluorescence change (ΔF/F) following background subtraction.
Nefiracetam and PHA 543613 increase activity in MECP2-mosaic neurospheres. Because MECP2 resides on the X chromosome, random X-inactivation in females can produce a genetic pattern of mosaicism, with consequent phenotypic gradation, in which some cells express the normal allele while others are mutant. Therefore, as the next stage to evaluate the two drug candidates, a neurosphere model of MECP2 mosaicism was developed to mimic the female RTT brain by combining different proportions of control and MECP2-KO NPCs (see FIG. 7A-C). […] Calcium transient frequency in MECP2-mosaic neurospheres was increased by treatment with Nefiracetam in isolation (1 μM, P<0.05) and when combined with PHA 543613 (10 μM, P<0.001; FIG. 7H), but calcium transient amplitude was unaffected by either compound (P=0.255; FIG. 7I). To investigate the impact of the drug treatments on the electrophysiological properties of the MECP2-mosaic model, neurospheres treated with 1 μM Nefiracetam, 1 μM PHA 543613, or both Nefiracetam and PHA 543613 were plated to perform MEA analysis. […]

Experiment [2] relates to MECP2-KO cortical organoids. The experiment is described as follows: Cortical organoid diameter. As to conditions: 1 μM for one month, 2-month old organoids. Here is the method: Generation of cortical organoids. Cortical organoid generation was performed according to Trujillo et al. (Cell Stem Cell 25:558-569.e7 (2019)). iPSCs cultured 5-7 d were dissociated with 1:1 Accutase (Life Technologies) in PBS, and 4×10^6 cells/well in mTeSR1 supplemented with 10 μM SB (Stemgent), 1 μM Dorso (R&D Systems), and 5 μM Y-27632 (EMD-Millipore, Burlington, Mass., USA) were plated on rotating suspension. […]
Nefiracetam and PHA 543613 rescue network activity in MECP2-KO cortical organoids. The therapeutic efficacy of Nefiracetam and PHA 543613 was evaluated with cortical organoids, a complex, three-dimensional human neurodevelopmental model that closely recapitulates aspects of human fetal neurodevelopment. […]

Experiment [3] has as its system MECP2-KO cortical organoids. The experiment is described as follows: RNA sequencing and gene ontology analysis of cortical organoids. As to conditions: 1 μM for one month, two-month old organoids. The method, then:
RNA-seq analyses. RNA-seq analyses were performed as described in Marchetto et al. (Nature 504:525-529 (2013)). Briefly, RNeasy Mini kit (Qiagen) isolated RNA for library preparation (Illumina TruSeq RNA Sample Preparation Kit; San Diego, Calif., USA) and sequencing (Illumina HiSeq2000, 50 bp paired-end reads, 50 million high-quality sequencing fragments per sample on average).
Gene ontology (GO) analysis. RNA-seq enrichment was with plugins WebGestalt and Cytoscape and considered only statistically significant categories (P<0.05). Genes evaluated for differential expression set the background for GO annotation and enrichment analysis.
Nefiracetam and PHA 543613 rescue network activity in MECP2-KO cortical organoids. The therapeutic efficacy of Nefiracetam and PHA 543613 was evaluated with cortical organoids, a complex, three-dimensional human neurodevelopmental model that closely recapitulates aspects of human fetal neurodevelopment. MECP2-KO and control cortical organoids were generated, as described above (see FIG. 9A, and FIG. 10A-B). One-month old cortical organoids were treated for another month with either Nefiracetam (1 μM) or PHA 543613 (1 μM), and experiments and analyses were performed using organoids at 2-3 months of age. […]

For experiment [4], the system named is MECP2-mosaic (CTR/KO) neurospheres. The experiment is described as follows: Nuclei size in neurospheres. As to conditions: vs CTR/KO untreated.
The test system of experiment [5] is MECP2-KO neurons. In words: Neuronal morphology (neurites, spine density). As to conditions: vs KO untreated.

Regarding `Cc1cccc(C)c1NC(=O)CN1CCCC1=O` [Nefiracetam, nefiracetam], in experiment [1] (1 μM, in isolation, P<0.05 vs CTR/KO untreated), the calcium transient frequency result is “increased”. Moreover, the calcium transient amplitude entry in experiment [1] is “unaffected”. Also, the “diameter of MECP2-KO organoids” value in experiment [2] is “increased”. Also, the “expression of genes in pathways relevant to synaptic function” value in experiment [3] is given as “promoted expression; also recorded: upregulated genetic expression”. In addition, the “nuclei size in neurospheres” value in experiment [4] is “did not rescue”. For the same compound, the “spine density / neuronal spine-like protrusions” value in experiment [5] is listed as “rescued or partially rescued”.

`O=C(N[C@H]1CN2CCC1CC2)c1cc2ccoc2cn1` [PHA 543613, N-[(3R)-1-azabicyclo[2.2.2]oct-3-yl]furo[2,3-c]pyridine-5-carboxamide]: the calcium transient amplitude entry in experiment [1] is “unaffected”. In experiment [2], the “diameter of MECP2-KO organoids” value is listed as “increased”. The “expression of genes in pathways relevant to synaptic function” value in experiment [3] was “promoted expression; also recorded: upregulated expression”. The “nuclei size in neurospheres” value in experiment [4] is “did not rescue”. Also, the “spine density / neuronal spine-like protrusions” value in experiment [5] is “rescued or partially rescued”.
